Measurements taken from ChEMBL document CHEMBL4665661, “Design, synthesis, and biological activity evaluation of (-)-6-O-desmethylantofine analogues as potent anti-cancer agents” (Bioorg Med Chem, 2019).
Activity calls are given as the source filed them. The calls are words filed in the database; no cut-off is given here.

Assays:
Bel-7402 [1] = experiment: Effect on DNA damage marker protein level in human Bel-7402 cells assessed as phosphor gamma H2AX at 100 fold antiproliferative IC50 after 1 hr by Western blot analysis; format: functional, cell-based
Bel-7402 [2] = experiment: Effect on DNA damage marker protein level in human Bel-7402 cells assessed as phosphorylation of CHK2 at Thr68[…] at 100 fold antiproliferative IC50 after 1 hr by Western blot analysis; format: functional, cell-based
K562 [3] = experiment: Cell cycle arrest in drug- resistant human K562/ADR cells assessed as inhibition of DNA synthesis by measuring increase in cell population at S phase at 1 to 100 nM upto 24 hrs by RNase A/propidium iodide staining-based flow cytometric analysis; format: functional; details: dose nM 1-100, time hrs <=24
Bel-7402 [4] = experiment: Induction of apoptosis in human Bel-7402 cells assessed as necrotic cells at 1 uM after 72 hrs by FITC-annexin V/propidium iodide-double staining based flow cytometry (reference value: 2.86%); format: functional
Bel-7402 [5] = experiment: Induction of apoptosis in human Bel-7402 cells assessed as necrotic cells at 0.01 uM after 72 hrs by FITC-annexin V/propidium iodide-double staining based flow cytometry (reference value: 2.86%); format: functional
MDA-MB-231 = experiment: Antiproliferative activity against human MDA-MB-231 cells incubated for 72 hrs by MTT assay; format: functional, cell-based
Bel-7402 [6] = experiment: Antiproliferative activity against human Bel-7402 cells at 11 to 33 nM by IncuCyte zoom live cell analysis; format: functional, cell-based; details: dose nM 11-33
Bel-7402 [7] = experiment: Induction of apoptosis in human Bel-7402 cells assessed as viable cells at 0.1 uM after 72 hrs by FITC-annexin V/propidium iodide-double staining based flow cytometry (reference value: 93.6%); format: functional; details: read-out: Activity
Hep 3B2 = experiment: Antiproliferative activity against human Hep3B cells incubated for 72 hrs by MTT assay; format: functional, cell-based
SMMC-7721 [8] = experiment: Cell cycle arrest in human SMMC-7721 cells assessed as inhibition of DNA synthesis by measuring increase in cell population at S phase at 20 to 200 nM after 24 hrs by RNase A/propidium iodide staining-based flow cytometric analysis; format: functional
Bel-7402 [9] = experiment: Cell cycle arrest in human Bel-7402 cells assessed as increase in cell population at S phase at 1.2 nM by RNase A/propidium iodide staining-based flow cytometric analysis (reference value: 26.3%); format: functional
Bel-7402 [10] = experiment: Antiproliferative activity against human Bel-7402 cells after 72 hrs by SRB assay; format: functional, cell-based; details: Bel-7402, 72 h
786-0 = experiment: Antiproliferative activity against human 786-0 cells incubated for 72 hrs by MTT assay; format: functional, cell-based
K562 [11] = experiment: Antiproliferative activity against human K562 cells incubated for 72 hrs by MTT assay; format: functional, cell-based
Bel-7402 [12] = experiment: Induction of apoptosis in human Bel-7402 cells assessed as late apoptotic cells at 0.1 uM after 72 hrs by FITC-annexin V/propidium iodide-double staining based flow cytometry (reference value: 3.06%); format: functional
Bel-7402 [13] = experiment: Cell cycle arrest in human Bel-7402 cells assessed as increase in cell population at S phase at 3.7 nM by RNase A/propidium iodide staining-based flow cytometric analysis (reference value: 26.3%); format: functional
HeLa = experiment: Antiproliferative activity against human HeLa cells incubated for 72 hrs by MTT assay; format: functional, cell-based
Bel-7402 [14] = experiment: Antiproliferative activity against human Bel-7402 cells incubated for 72 hrs by MTT assay; format: functional, cell-based
Bel-7402 [15] = experiment: Induction of apoptosis in human Bel-7402 cells assessed as necrotic cells at 1 uM after 3 days by […]; format: functional; details: time 3 day
Huh-7 = experiment: Antiproliferative activity against human HuH7 cells incubated for 72 hrs by MTT assay; format: functional, cell-based
SMMC-7721 [16] = experiment: Antiproliferative activity against human SMMC-7721 cells incubated for 72 hrs by MTT assay; format: functional, cell-based
BXPC-3 = experiment: Antiproliferative activity against human BxPC-3 cells incubated for 72 hrs by MTT assay; format: functional, cell-based
Bel-7402 [17] = experiment: Inhibition of colony formation in human Bel-7402 cells upto 1 uM incubated for 24 hrs measured after 12 days by 2D colony formation assay; format: functional, cell-based; details: time 12.0 day
Bel-7402 [18] = experiment: Inhibition of DNA synthesis in human Bel-7402 cells assessed as Brdu positive cells at 0.01 uM measured after 1 hr by propidium iodide staining-based BrdU incorporation assay (reference value: 29.8%); format: functional; design: scale not given: the % may be the effect or the level left; details: time 30 min, 0.5 h
Bel-7402 [19] = experiment: Cell cycle arrest in human Bel-7402 cells assessed as increase in cell population at S phase at 11 nM by RNase A/propidium iodide staining-based flow cytometric analysis (reference value: 26.3%); format: functional
Zip177 = experiment: Antiproliferative activity against human […] cells incubated for 72 hrs by MTT assay; format: functional, cell-based
SK-BR-3 = experiment: Antiproliferative activity against human SK-BR-3 cells incubated for 72 hrs by MTT assay; format: functional, cell-based
HCT-116 = experiment: Antiproliferative activity against human HCT-116 cells incubated for 72 hrs by MTT assay; format: functional, cell-based
K562 [20] = experiment: Antiproliferative activity against human K562 cells; format: functional, cell-based
Bel-7402 [21] = experiment: Inhibition of DNA synthesis in human Bel-7402 cells assessed as Brdu positive cells at 1 uM measured after 1 hrs by propidium iodide staining-based BrdU incorporation assay (reference value: 29.8%); format: functional; design: scale not given: the % may be the effect or the level left; details: time 30 min, 0.5 h
K562 [22] = experiment: Cell cycle arrest in human K562 cells assessed as inhibition of DNA synthesis by measuring increase in cell population at S phase at 1 to 100 nM upto 24 hrs by RNase A/propidium iodide staining-based flow cytometric analysis; format: functional; details: dose nM 1-100, time hrs <=24
T47D = experiment: Antiproliferative activity against human T47D cells incubated for 72 hrs by MTT assay; format: functional, cell-based
PC-3 = experiment: Antiproliferative activity against human PC-3 cells incubated for 72 hrs by MTT assay; format: functional, cell-based
HL-60 = experiment: Antiproliferative activity against human HL-60 cells after 72 hrs by MTT assay; format: functional, cell-based; details: HL-60, 72 h
MDA-MB-157 = experiment: Antiproliferative activity against human MDA-MB-157 cells incubated for 72 hrs by MTT assay; format: functional, cell-based
K562/Adr = experiment: Antiproliferative activity against drug- resistant human K562/ADR cells; format: functional, cell-based
Bel-7402 [23] = experiment: Induction of apoptosis in human Bel-7402 cells assessed as early apoptotic cells at 0.1 uM after 72 hrs by FITC-annexin V/propidium iodide-double staining based flow cytometry (reference value: 0.65%); format: functional
MKN-45 = experiment: Antiproliferative activity against human MKN-45 cells incubated for 72 hrs by MTT assay; format: functional, cell-based
HepG2 = experiment: Antiproliferative activity against human HepG2 cells incubated for 72 hrs by MTT assay; format: functional, cell-based
COLO 205 = experiment: Antiproliferative activity against human COLO 205 cells incubated for 72 hrs by MTT assay; format: functional, cell-based
Bel-7402 [24] = experiment: Cell cycle arrest in human Bel-7402 cells assessed as increase in cell population at S phase at 100 nM by RNase A/propidium iodide staining-based flow cytometric analysis (reference value: 26.3%); format: functional
Bel-7402 [25] = experiment: Induction of apoptosis in human Bel-7402 cells assessed as necrotic cells at 0.1 uM after 72 hrs by FITC-annexin V/propidium iodide-double staining based flow cytometry (reference value: 2.86%); format: functional

IC50 (Bel-7402 [10]): 12 nM | IC50 (K562 [20]): 13.6 nM | IC50 (HL-60): 44 nM | IC50 (K562/Adr): 15.8 nM
Structure (SMILES): COc1cc2c3c(c4ccc(OCC#N)cc4c2cc1OC)CN1CCC[C@@H]1C3
Activity (Bel-7402 [1]): inactive | Activity (Bel-7402 [2]): inactive | Activity (K562 [3]): Active | Activity (Bel-7402 [4]): 3.73% | Activity (Bel-7402 [5]): 1.59% | inhibition (MDA-MB-231): Active | inhibition (Bel-7402 [6]): Active | viability at 0.1 µM (Bel-7402 [7]): 87.8% | inhibition (Hep 3B2): Active | Activity (SMMC-7721 [8]): Active | Activity (Bel-7402 [9]): 24.5% | inhibition (786-0): Active | inhibition (K562 [11]): Active | Activity (Bel-7402 [12]): 8.29% | Activity (Bel-7402 [13]): 27% | inhibition (HeLa): Active | inhibition (Bel-7402 [14]): Active | Activity (Bel-7402 [15]): 20% | inhibition (Huh-7): Active | inhibition (SMMC-7721 [16]): Active | inhibition (BXPC-3): Active | inhibition (Bel-7402 [17]): Active | Activity (Bel-7402 [18]): 26.9% | Activity (Bel-7402 [19]): 28.8% | inhibition (Zip177): Active | inhibition (SK-BR-3): Active | inhibition (HCT-116): Active | Activity (Bel-7402 [21]): 8.15% | Activity (K562 [22]): Active | inhibition (T47D): Active | inhibition (PC-3): Active | inhibition (MDA-MB-157): Active | Activity (Bel-7402 [23]): 0.78% | inhibition (MKN-45): Active | inhibition (HepG2): Active | inhibition (COLO 205): Active | Activity (Bel-7402 [24]): 41.3% | Activity (Bel-7402 [25]): 3.09%
